target: recombinant Mcl-1 (residues 172-327) (Homo sapiens (Human), UniProt Q07820); assay: Bak peptide fluorescence polarization anisotropy competition assay, Mcl-1; format: binding; settings: Table 2, Ki range; FITC-Bak peptide 10 nM, Mcl-1 14 nM; read-out: Ki for inhibition of Mcl-1
Sequence (Q07820 172-327): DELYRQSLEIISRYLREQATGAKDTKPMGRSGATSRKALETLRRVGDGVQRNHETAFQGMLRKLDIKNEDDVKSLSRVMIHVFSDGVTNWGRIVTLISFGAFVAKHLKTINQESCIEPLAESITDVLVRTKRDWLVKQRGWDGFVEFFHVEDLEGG

Ki [nM]	SMILES
≤ 100	Cc1cc(OCCCc2c(C(=O)NS(=O)(=O)c3ccccc3)[nH]c3cc(Cl)ccc23)cc(C)c1Cl [Example 216, 6-chloro-3-(3-(4-chloro-3,5-dimethylphenoxy)propyl)-N-(phenylsulfonyl)-1H-indole-2-carboxamide]
≤ 100	COC(=O)c1cc(S(=O)(=O)NC(=O)c2[nH]c3cc(Cl)ccc3c2CCCOc2cc(C)c(Cl)c(C)c2)oc1C [Example 264, methyl 5-(N-(6-chloro-3-(3-(4-chloro-3,5-dimethylphenoxy)propyl)-1H-indole-2-carbonyl)sulfamoyl)-2-methylfuran-3-carboxylate]

same assay, conditions: read-out: Ki for inhibition of Mcl-1

Ki [nM]	SMILES
1000 to 9990	Cc1cc(OCCCc2c(C(=O)NS(=O)(=O)c3ccc4ccccc4c3)oc3ccccc23)cc(C)c1Cl [Example 27, 3-(3-(4-chloro-3,5-dimethylphenoxy)propyl)-N-(naphthalen-2-ylsulfonyl)benzofuran-2-carboxamide]
101 to 299	Cc1cc(OCCCc2c(C(=O)NS(=O)(=O)CCN3C(=O)c4ccccc4C3=O)[nH]c3cc(Cl)ccc23)cc(C)c1Cl [Example 250, 6-chloro-3-(3-(4-chloro-3,5-dimethylphenoxy)propyl)-N-((2-(1,3-dioxoisoindolin-2-yl)ethyl)sulfonyl)-1H-indole-2-carboxamide]
101 to 299	Cc1cc(OCCCc2c(C(=O)NS(C)(=O)=O)[nH]c3c(-c4c(CO)nn(C)c4C)cccc23)cc(C)c1Cl [Example 126, 3-(3-(4-chloro-3,5-dimethylphenoxy)propyl)-7-(3-(hydroxymethyl)-1,5-dimethyl-1H-pyrazol-4-yl)-N-(methylsulfonyl)-1H-indole-2-carboxamide]
301 to 500	Cc1ccc2c(CCCOc3cc(C)c(Cl)c(C)c3)c(C(=O)NS(C)(=O)=O)[nH]c2c1 [Example 117, 3-(3-(4-chloro-3,5-dimethylphenoxy)propyl)-6-methyl-N-(methylsulfonyl)-1H-indole-2-carboxamide]
501 to 999	O=C(NS(=O)(=O)C(F)(F)F)c1cc2ccccc2n1CCCOc1cccc2ccccc12 [Example 15, 1-(3-(naphthalen-1-yloxy)propyl)-N-((trifluoromethyl)sulfonyl)-1H-indole-2-carboxamide]
301 to 500	Cc1cc(OCCCc2c(C(=O)NS(=O)(=O)C3CCN(C(=O)c4cccc(Oc5ccccc5)c4)CC3)[nH]c3cc(Cl)ccc23)cc(C)c1Cl [Example 213, 6-chloro-3-(3-(4-chloro-3,5-dimethylphenoxy)propyl)-N-((1-(3-phenoxybenzoyl)piperidin-4-yl)sulfonyl)-1H-indole-2-carboxamide]
301 to 500	O=C(NS(=O)(=O)CCNC(=O)C1CCCCC1)c1[nH]c2cc(Cl)ccc2c1CCCOc1cccc2ccccc12 [Example 228, 6-chloro-N-((2-(cyclohexanecarboxamido)ethyl)sulfonyl)-3-(3-(naphthalen-1-yloxy)propyl)-1H-indole-2-carboxamide]
301 to 500	Cc1cc(OCCCc2c(C(=O)NS(=O)(=O)CCOc3ccccc3)[nH]c3ccccc23)cc(C)c1Cl [Example 141, 3-(3-(4-chloro-3,5-dimethylphenoxy)propyl)-N-((2-phenoxyethyl)sulfonyl)-1H-indole-2-carboxamide]
1000 to 9990	CS(=O)(=O)NC(=O)c1[nH]c2ccccc2c1CCCOc1cccc2c1CCC2 [Example 74, 3-(3-((2,3-dihydro-1H-inden-4-yl)oxy)propyl)-N-(methylsulfonyl)-1H-indole-2-carboxamide]
10000 to 50000	CS(=O)(=O)NC(=O)c1[nH]c2ccccc2c1CCCOc1ccc(Cl)cc1 [Example 35, 3-(3-(4-chlorophenoxy)propyl)-N-(methylsulfonyl)-1H-indole-2-carboxamide]
101 to 299	Cc1cc(OCCCc2c(C(=O)NS(=O)(=O)c3ccccc3)n(Cc3cccnc3)c3cc(Cl)ccc23)cc(C)c1Cl [Example 272, 6-chloro-3-(3-(4-chloro-3,5-dimethylphenoxy)propyl)-N-(phenylsulfonyl)-1-(pyridin-3-ylmethyl)-1H-indole-2-carboxamide]
